Marks after values point to notes of the source that are not given here.
What was measured:
[1] = system: anesthetized dogs; assay: Blood pressure, heart rate and respiration of anesthetized dogs (Example 11); type: in vivo; conditions: oral 40 mg/kg; in 3 hours after administration
Method: Methods: eight healthy male dogs with the body weight ranging from 12-15 kg were used. The dogs were anesthetized with 30 mg/kg of sodium pentobarbital. The femoral artery was dissected and inserted with a blood pressure transducer to record the blood pressure. The limbs were pierced with electrodes for recording the electrocardiogram. The respiration belt was wrapped around their chest and the respiration rate was recorded. The apparatus used was RM-6000 Polygraph system (NIHON KOHDEN, Japan). The changes in the arterial blood pressure, the heart rate, and the respiration were observed after the test compound was introduced into the stomach of the anesthetized dogs via 14# catheter.

[2] = system: mice with testis removed; assay: Sexual function (back climbing) of testis-removed mice (Example 10); type: in vivo, KM mice; conditions: for Incidence: back climbing within 2 hours after administration; for Times of back climbing / Number of the animals who performed back climbing: within 2 hours after administration; for Number of the animals who performed back climbing: 10 male mice
Text: Methods: Forty healthy KM male mice with the body weight ranging from 28-32 g and forty healthy KM female mice with body weight ranging from 24-28 g were used. Each male mouse was anesthetized with sodium pentobarbital, and the testes were squeezed into the scrotum. After sterilization, the scrotum was dissected with an operating knife. The testes and epididymis were respectively taken out, and then ligated. The wound were sutured and each of the mice was administrated with 100,000 units of penicillin for three consecutive days. After being bred for one week, the mice were used for the tests. The animals may be employed repeatedly and the interval between any two tests was 72 hours. To the mice, the following compounds were orally administered: compound (1), compound (2), compound (3), and compound (4), each at the dose of 80 mg/kg and 40 mg/kg, respectively. The positive control agent was Sildenafil, at the dose of 80 mg/kg. The control group was given with 1% of sodium carboxymethyl cellulose. At 30 min after the administration, the male mice who had taken the above agents were put into the cages of female mice, with the male-to-female rate of 1:1. There were three males and three females in each cage. The times of back climbing on the female mice performed by the male mice, and the percentage of occurrence were observed within 2 hours after the administration.

[3] = Preliminary acute toxicity, Bliss method (Example 13); conditions: rat, in vivo, oral and intragastric administration, rats
Method: Experimental methods: the toxicity test was conducted by oral and intragastric administration of the pyrazolopyrimidinethione derivatives of the invention using the Bliss method.

[4] = system: rats with testis removed; assay: Penile erection caused by stimulating electric current in rats with testes removed (Example 7); type: in vivo, wistar rats; conditions: for Latent period / Swelling time: stimulation 35 min after administration
Text: Methods: Forty healthy adult male wistar rats were used in the study, with the body weight ranging from 230 g to 250 g. The rats were anesthetized with sodium pentobarbital, and their testes were squeezed into the scrotum. After sterilization, the scrotum was dissected with an operation knife. The testes and epididymis were taken out respectively and then ligated. The wound were sutured and 100,000 unit of penicillin was administrated to each rat for three consecutive days. After breeding for one week, the rats were used for the tests. The animals may be used repeatedly and the interval between any two of the tests was one week. […] Sildenafil at the dose of 50 mg/kg was used as the positive control. The control group is (1% sodium carboxymethyl cellulose). In 35 min after the administration, the penis of the rats was stimulated with SEN-3201 stimulator (NIHON KOHDEN, Japan), with the following parameters: the stimulating voltage of 10V, the time interval (T1) of 250 msec, the deferment time (T2) of 10 msec, the duration (T3) of 500 μsec, and the stimulation rank (n) of 25. At the same time, the latent period (sec) of the penile erection and the penile swelling time (min) were recorded with a three-channel stop-watch.

[5] = system: anesthetized rats; assay: Blood pressure and heart rate of anesthetized rats (Example 12); type: in vivo, wistar rats
Method: Forty male wistar rats with the body weight ranging from 220-240 g were used in the study. Pharmaceuticals: compound (2) and Sildenafil, which were ground and then suspended with 1% of sodium carboxymethyl cellulose. Apparatus: RM-6000 eight-graph system (NIHON KOHDEN, Japan). The doses for administration and the division of the groups: solvent control group (abbreviated as the control group), 20 mg/kg of compound (2), 40 mg/kg of compound (2), 80 mg/kg of compound (2), and 50 mg/kg of Sildenafil. The administration route is through dodecadactylon. Methods: the male wistar rats were taken out and anesthetized with 35 mg/kg of sodium pentobarbital by injecting into the abdominal cavity, on the basis of their body weight. The rats were fixed on the operation table and were performed with the dissection operation of right carotid artery. The catheter with an external diameter of 1 mm was inserted into the right carotid artery. The blood pressure was measured and the electrodes positioned on the skin of the four limbs were used to record the electrocardiogram limb lead II. The catheter with an external diameter of 2 mm was inserted into the dodecadactylon via incision of the epigastric region, for the administration of the pharmaceuticals. RM-6000 eight-graph system (NIHON KOHDEN, Japan) was employed to record. Observation time: the value before administration, the values at 15, 30, 60, 120 and 180 min after the administration.

[6] = 20 mg/kg through dodecadactylon, at 15 min after administration
[7] = 20 mg/kg through dodecadactylon, at 30 min after administration
[8] = 20 mg/kg through dodecadactylon, at 60 min after administration
[9] = 20 mg/kg through dodecadactylon, at 120 min after administration
[10] = 20 mg/kg through dodecadactylon, value before administration
[11] = 40 mg/kg through dodecadactylon, at 15 min after administration
[12] = 40 mg/kg through dodecadactylon, at 30 min after administration
[13] = 40 mg/kg through dodecadactylon, at 60 min after administration
[14] = 40 mg/kg through dodecadactylon, at 120 min after administration
[15] = 40 mg/kg through dodecadactylon, value before administration
[16] = 80 mg/kg through dodecadactylon, at 15 min after administration
[17] = 80 mg/kg through dodecadactylon, at 30 min after administration
[18] = 80 mg/kg through dodecadactylon, at 60 min after administration
[19] = 80 mg/kg through dodecadactylon, at 120 min after administration
[20] = 80 mg/kg through dodecadactylon, value before administration
[21] = 20, 40 and 80 mg/kg through dodecadactylon

In the case of `CCCc1nn(C)c2c(=S)[nH]c(-c3cc(S(=O)(=O)N4C[C@@H](C)N[C@@H](C)C4)ccc3OCC)nc12` [Compound (2), 5-[2-ethoxy-5-(cis-3,5-dimethylpiperazin-1-sulfonyl)phenyl]-1-methyl-3-n-propyl-1,6-dihydro-7H-pyrazolo[4,3-d]pyrimidin-7-thione], the “arterial blood pressure (systolic and diastolic), heart rate and respiration (frequency and depth), in words” value [1] is reported as “did not experience an evident change”, the Incidence ([2]; oral 40 mg/kg) is reported as 60% and the “Times of back climbing” value ([2]; oral 40 mg/kg, 40 mg/kg) is reported as 11*. For the same compound, the “Number of the animals who performed back climbing” value ([2]; oral 40 mg/kg) was 6*, the “Times of back climbing” value ([2]; oral 40 mg/kg, listed as compound (2), 40 mg/kg) was 11 and the Incidence ([2]; oral 80 mg/kg) was 80%. For the same compound, the “Times of back climbing” value ([2]; oral 80 mg/kg, 80 mg/kg) was 20**, the “Number of the animals who performed back climbing” value ([2]; oral 80 mg/kg) was 8** and the “Times of back climbing” value ([2]; oral 80 mg/kg, listed as compound (2), 80 mg/kg) was 20. For the same compound, the LD50 [3] was over 3000 mg/kg, the “penile swelling time (in words)” value ([4]; compared with control) was “lengthened” and the “latent period of the penile erection (in words)” value ([4]; compared with control, P<0.001) was “evidently shortened”. For the same compound, the “penile swelling time compared with positive control sildenafil (in words)” value ([4]; compared with sildenafil 50 mg/kg) was “more evident”, the Latent period ([4]; oral 10 mg/kg) was 29.5 ± 4.2 s and the Swelling time ([4]; oral 10 mg/kg) was 1069.8 ± 621.5 s. For the same compound, the Latent period ([4]; oral 20 mg/kg) was 29.5 ± 4.2 s, the Swelling time ([4]; oral 20 mg/kg) was 1480.5 ± 469.7 s and the Latent period ([4]; oral 40 mg/kg) was 30.1 ± 3.9 s. For the same compound, the Swelling time ([4]; oral 40 mg/kg) was 2675.5 ± 769.2 s, the Heart rate [5, 6] was 440 ± 29.7 times/min and the Systolic pressure [5, 6] was 132 ± 29.5 mmHg. For the same compound, the diastolic pressure [5, 6] was 108 ± 29.7 mmHg, the Heart rate [5, 7] was 440 ± 29.6 times/min and the Systolic pressure [5, 7] was 134 ± 29.6 mmHg. The diastolic pressure [5, 7] was 104 ± 29.6 mmHg, the Heart rate [5, 8] was 436 ± 22.9 times/min and the Systolic pressure [5, 8] was 128 ± 22.9 mmHg. It also gave a diastolic pressure [5, 8] of 101 ± 22.9 mmHg, a Heart rate [5, 9] of 428 ± 22.6 times/min and a Systolic pressure [5, 9] of 127 ± 22.6 mmHg. For the same compound, the diastolic pressure [5, 9] was 102 ± 22.6 mmHg, the Heart rate ([5]; 20 mg/kg through dodecadactylon, before administration) was 445 ± 25.1 times/min and the Systolic pressure [5, 10] was 134 ± 7.2 mmHg. The diastolic pressure [5, 10] was 109 ± 14.1 mmHg, the Heart rate [5, 11] was 422 ± 29.7 times/min and the Systolic pressure [5, 11] was 130 ± 29.7 mmHg. For the same compound, the diastolic pressure [5, 11] was 109 ± 29.7 mmHg, the Heart rate [5, 12] was 427 ± 29.6 times/min and the Systolic pressure [5, 12] was 134 ± 29.6 mmHg. The diastolic pressure [5, 12] was 109 ± 29.6 mmHg, the Heart rate [5, 13] was 425 ± 22.9 times/min and the Systolic pressure [5, 13] was 122 ± 22.9 mmHg. The diastolic pressure [5, 13] was 109 ± 22.9 mmHg, the Heart rate [5, 14] was 424 ± 22.6 times/min and the Systolic pressure [5, 14] was 133 ± 22.6 mmHg. For the same compound, the diastolic pressure [5, 14] was 112 ± 22.6 mmHg, the Heart rate ([5]; 40 mg/kg through dodecadactylon, before administration) was 429 ± 42.8 times/min and the Systolic pressure [5, 15] was 129 ± 13.6 mmHg. It also gave a diastolic pressure [5, 15] of 109 ± 14.4 mmHg, a Heart rate [5, 16] of 439 ± 29.7 times/min and a Systolic pressure [5, 16] of 121 ± 29.7 mmHg. The diastolic pressure [5, 16] was 102 ± 29.7 mmHg, the Heart rate [5, 17] was 442 ± 29.6 times/min and the Systolic pressure [5, 17] was 123 ± 29.6 mmHg. It also gave a diastolic pressure [5, 17] of 97 ± 29.6 mmHg, a Heart rate [5, 18] of 436 ± 22.8 times/min and a Systolic pressure [5, 18] of 121 ± 22.9 mmHg. It also gave a diastolic pressure [5, 18] of 96 ± 22.9 mmHg, a Heart rate [5, 19] of 438 ± 22.6 times/min and a Systolic pressure [5, 19] of 119 ± 22.6 mmHg. The diastolic pressure [5, 19] was 94 ± 22.6 mmHg, the Heart rate ([5]; 80 mg/kg through dodecadactylon, before administration) was 439 ± 22.6 times/min and the Systolic pressure [5, 20] was 126 ± 12.1 mmHg. The diastolic pressure [5, 20] was 102 ± 12.0 mmHg, the “effect on the heart rate (in words)” value [5, 21] was “did not exhibit an evident effect” and the “effect on the systolic pressure and diastolic pressure (in words)” value [5, 21] was “did not exhibit an evident effect”.

From patent US20070219220A1, “Pyrazolopyrimidinethione Derivatives, Salts and Solvates Thereof, Preparation Methods and Use Thereof” (priority 2003, published 2007)
